In paper PMC9537541, “Synthesis and anticancer activity of new benzensulfonamides incorporating s-triazines as cyclic linkers for inhibition of carbonic anhydrase IX” (Scientific Reports, 2022):
Entries after “also recorded” stand apart in the source; their conditions may differ. Values belong to the compound of their own block, whether it stands above or below them.

Assays:
hCA I = biological target: T1, hCA I (Homo sapiens, UniProt P00915); experiment: stopped-flow CO2 hydrase assay, hCA I; assay type: biochemical; settings: stopped flow technique, mean from 3 different assays
T1 construct: made in house
T1 sequence (P00915 whole entry): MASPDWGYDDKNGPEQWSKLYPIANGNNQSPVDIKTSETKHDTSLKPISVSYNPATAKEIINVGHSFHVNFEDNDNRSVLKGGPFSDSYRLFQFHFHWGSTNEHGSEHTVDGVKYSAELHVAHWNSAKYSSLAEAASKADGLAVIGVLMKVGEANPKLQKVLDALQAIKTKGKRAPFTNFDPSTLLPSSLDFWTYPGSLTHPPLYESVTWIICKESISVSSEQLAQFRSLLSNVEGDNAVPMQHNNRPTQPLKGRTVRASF
Method: (§1) Target compounds of series (A) and (B) were screened as inhibitors concerning the physiologically relevant hCAs; cytosolic isoforms (hCA I and II) in addition to the transmembrane tumor related isoforms (hCA IX and XII) via a stopped-flow assay of carbonic anhydrase catalyzed CO2 hydration. Acetazolamide (AAZ), CA I drug, was also incorporated in the assays as a standard drug. […] Four CA isoforms inhibition activity was measured by assaying CA catalyzed CO2 hydration via an applied photophysics stopped-flow instrument. PRISM 3 and the Cheng-prusoff equation were used to determine the inhibition constant by non-linear least square methods as reported, and represent the mean from three different determination at least. All tested carbonic anhydrase isoforms were recombinant proteins prepared in lab as described earlier,[57].

hCA II = biological target: T2, hCA II (Homo sapiens, UniProt P00918); experiment: stopped-flow CO2 hydrase assay, hCA II; assay type: biochemical; settings: stopped flow technique, mean from 3 different assays
T2 construct: made in house
Method: as §1

hCA IX = biological target: T3, hCA IX (Homo sapiens, UniProt Q16790); experiment: stopped-flow CO2 hydrase assay, hCA IX; assay type: biochemical
T3 construct: made in house
Method: as §1

hCA XII = biological target: T4, hCA XII (Homo sapiens, UniProt O43570); experiment: stopped-flow CO2 hydrase assay, hCA XII; assay type: biochemical
T4 construct: made in house
T4 sequence (O43570 25-354): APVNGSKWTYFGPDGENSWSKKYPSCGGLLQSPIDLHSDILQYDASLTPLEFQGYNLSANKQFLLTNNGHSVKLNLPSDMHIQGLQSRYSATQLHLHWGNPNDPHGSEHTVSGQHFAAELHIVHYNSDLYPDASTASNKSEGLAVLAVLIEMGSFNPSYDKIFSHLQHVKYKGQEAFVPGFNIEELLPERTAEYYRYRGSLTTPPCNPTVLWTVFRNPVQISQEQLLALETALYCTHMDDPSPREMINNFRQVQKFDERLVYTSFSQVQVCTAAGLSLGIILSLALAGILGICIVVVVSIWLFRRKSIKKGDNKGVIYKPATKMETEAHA
Method: as §1

[1] = test system: Breast cancer (MDA-MB-468); experiment: NCI single dose SRB screen, MDA-MB-468; assay type: cell-based
Method: (§2) Target compounds in series (A) and (B), were submitted to the National Cancer Institute (NCI) Developmental Therapeutic Program (www.dtp.nci.nih.gov), where they have been assessed, in vitro for their anticancer activity. Two series (A) and (B), were screened in a single dose (10 µM) versus full panel composed of 60 cancer cell lines, in accordance with protocol of drug evaluation branch, NCI, Bethesda. Sulforhodamine B (SRB) colorimetric assay was used to determine cell growth and viability,[40].
(§3) Protocol of Drug Evaluation Branch, NCI, Bethesda, was adopted in the antitumor assay. Assessment of cell growth and viability was carried out utilizing SRB assay and 48 h drug exposure protocol as previously reported,[40].

Leukemia (SR) = experiment: NCI single dose SRB screen, SR; assay type: cell-based; settings: 48 h, 10^−5 M single dose, read-out: GI% Leukemia (SR)
Method: as §2, §3

Leukemia (CCRF-CEM) = experiment: NCI single dose SRB screen, CCRF-CEM; assay type: cell-based; settings: normoxic condition (5% CO2, 95% air at 37 °C), NCI protocol
Method: as §2, §3

leukemia (RPMI-8226) = experiment: NCI single dose SRB screen, RPMI-8226; assay type: cell-based; settings: 10 µM single dose
Method: as §2, §3

breast cancer (T-47D) = experiment: NCI single dose SRB screen, T-47D; assay type: cell-based; settings: 10 µM single dose
Method: as §2, §3

[2] = test system: Breast cancer (MDA-MB-468); experiment: anti-proliferative activity under hypoxic condition (MTT), MDA-MB-468; assay type: cell-based
Method: (§4) All cells were incubated in hypoxic atmosphere (1% O2, 5% CO2, and 94%N2) and maintained at 37 °C. All procedures to determine compounds cytotoxicity were accomplished using MTT assay as reported,[59],[60].

leukemia (CCRF-CM) = experiment: anti-proliferative activity under hypoxic condition (MTT), CCRF-CM; assay type: cell-based; settings: for IC50: hypoxic conditions (1%O2, 5% CO2 and 94% N2), mean ± S.D. of three experiments
Method: as §4

[3] = test system: normal human embryonic kidney cells (HEK-293); experiment: normal cell line cytotoxicity (MTT), HEK-293; assay type: cell-based
Method: All data was collected in triplicate, and IC50 values were calculated as the average of three separate trials.

[4] = test system: MDA-MB-468 breast cancer cells; experiment: cell cycle analysis by flow cytometry; assay type: cell-based; settings: 24 h at IC50 concentration (3.99 µM)
Text: Cell cycle is composed of four distinct phases: G1, S, G2, and M[45]. Flow cytometry analysis of DNA ploidy in MDA-MB-468 breast cancer cells was used to evaluate the influence of compound 12d on normal cell cycle progression. […] Apoptosis and DNA fragmentation are possible mechanisms for 12d-induced cancer cell death based on the observed high increase in a pre-G1 cell population by 20 fold compared to the control.
The treated cells were centrifuged and maintained in ice-cold ethanol (70%) before being washed again with PBS and then re-suspended in RNase ([…]) followed by staining with 40 µg/mL PI, and analyzed by flow cytometry technique using a FACS Calibur (Becton Dickinson,BD, USA). Cell cycle distribution were calculated via CellQuest software 5.1 (Becton Dickinson),[63].

[5] = test system: MDA-MB-468 breast cancer cells; experiment: Annexin V-FITC/propidium iodide apoptosis assay; assay type: cell-based
Method: Apoptosis of tumor cells is the principal therapeutic objective of antiproliferative agents. The apoptotic induction potential of 12d in MDA-MB-468 cells were assessed using the Annexin V/propidium iodide double staining assay,[48].
Cells apoptosis further analyzed by measuring phosphatidylserine externalization using V-FITC/PI apoptosis detection kit (BD Biosciences, USA) according manufacturer's instructions, as reported,[62].

caspase 9 = experiment: Western blot of caspase 9 in MDA-MB-468 cells; assay type: cell-based
Text: (§5) Caspases, cysteine-containing aspartic acid-specific proteases, afford essential factors in cell networks that control and regulate death of the cell. Caspase-3 is a vital executioner protease which is triggered by cascade of initiator caspases such as caspase-9 [49]. This study was further extended to explore the apoptosis mechanism of compound 12d upon breast cancer, MDA-MB-468, cells by measuring the expression of apoptosis biomarkers (cleaved caspase 3 and caspase 9) via Gel electrophoresis and immune-blot analysis of proteins (Western Blot) using β-actin to normalize the loading. […] Accordingly, compound 12d have the ability to induce apoptosis in MDA-MB-468 cancer cells probably by pathways involving both caspase3 and caspase9.
(§6) MDA-MB-468 cells, were harvested on dishes of cell culture and treated for 24 h with compound 12d. An equal amount of protein transferred to PVDF membranes after separated by SDS-PAGE (5–15%). Skim milk with concentration 5% was used to block the blotted membranes for 1 h before being incubated with the desired primary antibodies at 37 °C for 1 h. Colorimetric technique was used to visualize immune reactive bands using Geldoc-it, UVP, England. To quantify equal loading, membrane was reseeded with β-actin antibody.
(§7) Eelectrophoresed proteins on SDS-PAGE were transferred to a Hybond™ nylon membrane (GE Healthcare) via TE62 Standard transfer tank with Cooling Chamber (Hoefer Inc. and incubate for 1 hour at room temperature in Blocking Solution. Additionally, β-actin (abcam, ab8227) was applied as housekeeping protein.
(§8) - Membrane was incubated the overnight at 4°C in antibody solution containing caspase isoform (Cell Signalling) separately for each antibody.
(§9) - Colorimetric technique was used to visualize immune reactive bands using Geldoc-it, UVP, England. Each experiment was run in triplicate.

caspase 3 = experiment: Western blot of caspase 3 in MDA-MB-468 cells; assay type: cell-based
Text: as §5, §6, §7, §8, §9

[6] = stopped flow technique, mean from 3 different assays
[7] = hypoxic condition (1% O2, 5% CO2, and 94%N2 at 37 °C)
[8] = Western blot, β-actin normalised

Ki (hCA I): 577 nM
Ki (hCA II): 364 nM
Selectivity index (SI) I/IX (hCA IX; hCA IX over off-target hCA I): 3
Selectivity index (SI) II/IX (hCA IX; hCA IX over off-target hCA II): 2
Ki (hCA IX; [6]): 190 nM
Selectivity index (SI) I/XII (hCA XII; hCA XII over off-target hCA I): 3
Selectivity index (SI) II/XII (hCA XII; hCA XII over off-target hCA II): 2
Ki (hCA XII; [6]): 188 nM
IC50 ([2]; Homo sapiens, MDA-MB-468, hypoxic conditions (1%O2, 5% CO2 and 94% N2), mean ± S.D. of three experiments): 3990 ± 210 nM
IC50 (leukemia (CCRF-CM)): 4510 ± 240 nM
Structure (SMILES): CN(C)c1ccc(/C=C(\C#N)c2nc(N)nc(Nc3ccc(S(N)(=O)=O)cc3)n2)cc1 [Compound 12d, 4-({4-Amino-6-[(1E)-1-cyano-2-[4-(dimethylamino)phenyl]eth-1-en-1-yl]-1,3,5-triazin-2-yl}amino)benzene-1-sulfonamide]
inhibition at 10 µM ([1]; Homo sapiens, MDA-MB-468, 48 h, 10^−5 M single dose, 48 h, SRB, read-out: GI% Breast cancer (MDA-MB-468)): ≥ 50%
GI% Normoxia MDA-MB-468 ([1]; normoxic condition (5% CO2, 95% air at 37 °C), NCI protocol): 61.39%
inhibition at 10 µM (Leukemia (SR)): ≥ 50%
GI% Normoxia CCRF-CM (Leukemia (CCRF-CEM)): 52.61%
GI% leukemia (RPMI-8226) (leukemia (RPMI-8226)): ≥ 50%
GI% breast cancer (T-47D) (breast cancer (T-47D)): ≥ 50%
GI% Hypoxia MDA-MB-468 [2, 7]: 59.38%
GI% Hypoxia CCRF-CM (leukemia (CCRF-CM); [7]): 55.82%
IC50 ([3]; Homo sapiens, HEK293, normal cells, mean ± SD of three independent experiments): 68100 ± 3720 nM
safety index relative to staurosporine ([3]; cancer versus normal cells): about twofold
cell cycle arrest phases [4]: G0-G1 and S phases
increase in pre-G1 cell population compared to the control [4]: 20 fold
total increase in apoptotic cells compared to the control ([5]; annexin V-FITC positive cells): about 20 fold
apoptotic cells in late apoptosis phase (UR) ([5]; annexin V-FITC/PI, control 0.11%): 17.66%
apoptotic cells in early stage (LR) ([5]; annexin V-FITC/PI, control 0.39%): 2.76%
cleaved caspase 9 expression relative to the control (caspase 9; [8]): increasing the level; also recorded: significant activation
Expression level of procaspase 9, Lane %, Mean ± SD (caspase 9; treated 24 h, three replicates, control 40.53 ± 0.008): 25.30 ± 0.004%
Expression level of cleaved caspase 9, Lane %, Mean ± SD, first line (caspase 9; treated, first of two band lines (35/37 KDa), control 6.75 ± 0.008): 6.04 ± 0.012%
Expression level of cleaved caspase 9, Lane %, Mean ± SD, second line (caspase 9; treated, second of two band lines (35/37 KDa), control 14.32 ± 0.004): 21.59 ± 0.004%
cleaved caspase 3 expression relative to the control (caspase 3; [8]): increasing the level; also recorded: significant activation
Expression level of procaspase 3, Lane %, Mean ± SD (caspase 3; treated 24 h, three replicates, control 42.52 ± 0.013): 27.81 ± 0.008%
Expression level of cleaved caspase 3, Lane %, Mean ± SD, first line (caspase 3; treated, first of two band lines (17/19 KDa), control 4.91 ± 0.017): 6.88 ± 0.008%
Expression level of cleaved caspase 3, Lane %, Mean ± SD, second line (caspase 3; treated, second of two band lines (17/19 KDa), control 13.59 ± 0.0): 22.42 ± 0.0%

Structure (SMILES): CN[C@@H]1C[C@H]2O[C@@](C)([C@@H]1OC)n1c3ccccc3c3c4c(c5c6ccccc6n2c5c31)C(=O)NC4 [Staurosporine, reference compound]
IC50 (leukemia (CCRF-CM)): 2170 ± 110 nM
